In patent US20250235543A1, “MODIFIED PROTEINS AND PROTEIN DEGRADERS” (Cullgen (Shanghai), Inc., priority 2021, published 2025):

Legend:
CDK4 = molecular target: T1, CDK4 (Homo sapiens, UniProt P11802); assay: CDK4 percentage degradation in Calu-1 cells (immunoblotting); assay type: cell-based; details: Calu-1 cells, 200 nM, 16 hours; read-out: CDK4 Degradation (200 nM)
T1 construct: endogenous in cells; host or cells: Calu-1
Method in brief: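 Cultured cells were rinsed once in cold PBS and lysed in cold RIPA buffer containing protease and phosphatase inhibitors, with gentle agitation at 4° C. for 30 min. Lysates were centrifuged at 13,000 rpm for 10 min at 4° C., and protein was quantified by BCA. Samples were then separated by SDS-PAGE, detected with ECL, and the CDK4 bands quantified in Image Lab.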

cyclin D1 = assay: Cyclin D1 percentage degradation in Calu-1 cells (immunoblotting); assay type: cell-based; details: 200 nM, 16 hours
Method in brief: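 Cells were rinsed once in cold PBS and lysed in cold RIPA buffer containing protease and phosphatase inhibitors, with gentle agitation at 4° C. for 30 min. Lysates were spun at 13,000 rpm for 10 min at 4° C., protein was measured by BCA, and samples were boiled in Laemmli buffer at 99° C. for 5 min before SDS-PAGE immunoblotting.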

T1 sequence (P11802 2-303 limits assumed): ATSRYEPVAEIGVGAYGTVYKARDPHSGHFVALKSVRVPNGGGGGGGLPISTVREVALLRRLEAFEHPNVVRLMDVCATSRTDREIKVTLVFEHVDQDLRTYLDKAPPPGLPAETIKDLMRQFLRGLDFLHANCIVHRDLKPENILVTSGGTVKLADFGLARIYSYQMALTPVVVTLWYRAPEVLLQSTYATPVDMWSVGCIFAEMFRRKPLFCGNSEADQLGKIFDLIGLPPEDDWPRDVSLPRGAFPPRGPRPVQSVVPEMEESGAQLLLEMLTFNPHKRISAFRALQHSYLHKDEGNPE
T1 sequence (P24385 whole entry partner): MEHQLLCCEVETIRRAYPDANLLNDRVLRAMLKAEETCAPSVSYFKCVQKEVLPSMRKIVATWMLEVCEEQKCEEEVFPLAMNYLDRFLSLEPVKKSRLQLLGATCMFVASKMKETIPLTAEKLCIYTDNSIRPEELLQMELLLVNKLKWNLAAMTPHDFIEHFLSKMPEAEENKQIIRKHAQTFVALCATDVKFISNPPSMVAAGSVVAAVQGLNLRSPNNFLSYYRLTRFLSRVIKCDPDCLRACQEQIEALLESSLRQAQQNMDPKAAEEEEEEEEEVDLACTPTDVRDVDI
T1 sequence (Q16531 2-1140 limits assumed, further chain): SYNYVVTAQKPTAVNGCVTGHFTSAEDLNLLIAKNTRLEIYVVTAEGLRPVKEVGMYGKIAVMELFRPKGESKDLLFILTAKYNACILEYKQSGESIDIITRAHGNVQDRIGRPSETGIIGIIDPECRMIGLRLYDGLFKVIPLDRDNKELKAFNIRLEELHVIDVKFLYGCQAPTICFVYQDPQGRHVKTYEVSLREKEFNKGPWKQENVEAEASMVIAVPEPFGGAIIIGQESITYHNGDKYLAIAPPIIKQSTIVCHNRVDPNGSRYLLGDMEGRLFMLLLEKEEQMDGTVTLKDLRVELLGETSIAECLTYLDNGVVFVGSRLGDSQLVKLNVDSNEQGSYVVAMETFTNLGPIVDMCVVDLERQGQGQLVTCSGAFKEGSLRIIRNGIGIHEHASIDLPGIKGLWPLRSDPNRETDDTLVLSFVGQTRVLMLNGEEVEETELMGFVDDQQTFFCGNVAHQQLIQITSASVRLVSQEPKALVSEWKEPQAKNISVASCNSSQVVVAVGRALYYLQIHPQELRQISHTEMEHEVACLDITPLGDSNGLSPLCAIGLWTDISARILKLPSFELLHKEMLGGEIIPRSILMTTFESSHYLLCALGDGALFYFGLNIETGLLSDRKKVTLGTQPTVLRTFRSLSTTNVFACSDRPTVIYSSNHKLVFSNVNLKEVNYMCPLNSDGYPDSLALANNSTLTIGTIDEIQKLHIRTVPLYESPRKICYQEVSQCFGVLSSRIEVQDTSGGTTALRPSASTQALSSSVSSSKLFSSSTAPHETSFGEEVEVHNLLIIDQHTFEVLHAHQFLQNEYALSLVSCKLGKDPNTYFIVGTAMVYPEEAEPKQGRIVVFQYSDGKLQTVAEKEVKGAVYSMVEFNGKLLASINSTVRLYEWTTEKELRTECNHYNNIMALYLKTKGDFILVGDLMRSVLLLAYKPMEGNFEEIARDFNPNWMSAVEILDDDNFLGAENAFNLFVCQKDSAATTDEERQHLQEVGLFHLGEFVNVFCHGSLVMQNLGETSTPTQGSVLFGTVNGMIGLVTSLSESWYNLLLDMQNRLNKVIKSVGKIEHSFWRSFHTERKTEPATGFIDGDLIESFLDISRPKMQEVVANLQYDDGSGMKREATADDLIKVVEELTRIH

| Structure (SMILES) | inhibition at 0.2 µM (CDK4) | CyclinD1 Degradation (200 nM) (cyclin D1) |
| --- | --- | --- |
| COc1ccc(NC(=O)c2ccc(N(C)C)cc2NC(=O)CCOCCOCCNC(=O)CN2CCN(c3ccc(Nc4ncc5c(C)c(C(C)=O)c(=O)n(C6CCCC6)c5n4)nc3)CC2)nn1 [CPD-365, 2-(3-(2-(2-(2-(4-(6-((6-Acetyl-8-cyclopentyl-5-methyl-7-oxo-7,8-dihydropyrido[2,3-d]pyrimidin-2-yl)amino)pyridin-3-yl)piperazin-1-yl)acetamido)ethoxy)ethoxy)propanamido)-4-(dimethylamino)-N-(6-methoxypyridazin-3-yl)benzamide] | > 80% | A (protein percentage degradation >=80%) |
| COc1ccc(NC(=O)c2ccccc2NC(=O)COCCO[C@H]2CC[C@H](NC(=O)CN3CCN(c4ccc(Nc5ncc6c(C)c(C(C)=O)c(=O)n(C7CCCC7)c6n5)nc4)CC3)CC2)nn1 [CPD-366, 2-(2-(2-((trans-4-(2-(4-(6-((6-Acetyl-8-cyclopentyl-5-methyl-7-oxo-7,8-dihydropyrido[2,3-d]pyrimidin-2-yl)amino)pyridin-3-yl)piperazin-1-yl)acetamido)cyclohexyl)oxy)ethoxy)acetamido)-N-(6-methoxypyridazin-3-yl)benzamide] | < 30% | D (protein percentage degradation <30%) |
| CC(=O)c1c(C)c2cnc(Nc3ccc(N4CCN(CC(=O)NCCOCCOCCC(=O)Nc5ccccc5C(=O)Nc5nnc(C)s5)CC4)cn3)nc2n(C2CCCC2)c1=O [CPD-367, 2-(3-(2-(2-(2-(4-(6-((6-Acetyl-8-cyclopentyl-5-methyl-7-oxo-7,8-dihydropyrido[2,3-d]pyrimidin-2-yl)amino)pyridin-3-yl)piperazin-1-yl)acetamido)ethoxy)ethoxy)propanamido)-N-(5-methyl-1,3,4-thiadiazol-2-yl)benzamide] | < 30% | D (protein percentage degradation <30%) |
| CC(=O)c1c(C)c2cnc(Nc3ccc(N4CCN(CC(=O)NCCOCCOCCC(=O)Nc5ccccc5C(=O)Nc5ccc(C#N)nn5)CC4)cn3)nc2n(C2CCCC2)c1=O [CPD-369, 2-(3-(2-(2-(2-(4-(6-((6-Acetyl-8-cyclopentyl-5-methyl-7-oxo-7,8-dihydropyrido[2,3-d]pyrimidin-2-yl)amino)pyridin-3-yl)piperazin-1-yl)acetamido)ethoxy)ethoxy)propanamido)-N-(6-cyanopyridazin-3-yl)benzamide] | < 30% | D (protein percentage degradation <30%) |
| CNc1ccc(C(=O)Nc2nc(C)c(C)s2)c(NCCCCCCCNC(=O)CN2CCN(c3ccc(Nc4ncc5c(C)c(C(C)=O)c(=O)n(C6CCCC6)c5n4)nc3)CC2)c1 [CPD-370, 2-((7-(2-(4-(6-((6-Acetyl-8-cyclopentyl-5-methyl-7-oxo-7,8-dihydropyrido[2,3-d]pyrimidin-2-yl)amino)pyridin-3-yl)piperazin-1-yl)acetamido)heptyl)amino)-N-(4,5-dimethylthiazol-2-yl)-4-(methylamino)benzamide] | > 80% | A (protein percentage degradation >=80%) |

Continued, in another order:

| inhibition at 0.2 µM (CDK4) | Structure (SMILES) | CyclinD1 Degradation (200 nM) (cyclin D1) |
| --- | --- | --- |
| > 80% | CC(=O)c1c(C)c2cnc(Nc3ccc(N4CCN(CC(=O)NCCCCCCCNc5cc(C)ccc5C(=O)Nc5nc(C)c(C)s5)CC4)cn3)nc2n(C2CCCC2)c1=O [CPD-368, 2-((7-(2-(4-(6-((6-Acetyl-8-cyclopentyl-5-methyl-7-oxo-7,8-dihydropyrido[2,3-d]pyrimidin-2-yl)amino)pyridin-3-yl)piperazin-1-yl)acetamido)heptyl)amino)-N-(4,5-dimethylthiazol-2-yl)-4-methylbenzamide] | A (protein percentage degradation >=80%) |
| 50 to 80% | CNc1ccc(C(=O)Nc2ccc(C)c(C3CC3)n2)c(NCCCCCNC(=O)CN2CCN(c3ccc(Nc4ncc5c(C)c(C(C)=O)c(=O)n(C6CCCC6)c5n4)nc3)CC2)c1 [CPD-371, 2-((5-(2-(4-(6-((6-Acetyl-8-cyclopentyl-5-methyl-7-oxo-7,8-dihydropyrido[2,3-d]pyrimidin-2-yl)amino)pyridin-3-yl)piperazin-1-yl)acetamido)pentyl)amino)-N-(6-cyclopropyl-5-methylpyridin-2-yl)-4-(methylamino)benzamide] | A (protein percentage degradation >=80%) |
| 50 to 80% | CC(=O)c1c(C)c2cnc(Nc3ccc(N4CCN(CC(=O)NCCCCCNc5cc(F)ccc5C(=O)Nc5ccc(N(C)C)nn5)CC4)cn3)nc2n(C2CCCC2)c1=O [CPD-372, 2-((5-(2-(4-(6-((6-Acetyl-8-cyclopentyl-5-methyl-7-oxo-7,8-dihydropyrido[2,3-d]pyrimidin-2-yl)amino)pyridin-3-yl)piperazin-1-yl)acetamido)pentyl)amino)-N-(6-(dimethylamino)pyridazin-3-yl)-4-fluorobenzamide] | A (protein percentage degradation >=80%) |
| 50 to 80% | CC(=O)c1c(C)c2cnc(Nc3ccc(N4CCN(CC(=O)NCCCCCNc5cc(C)ccc5C(=O)Nc5ccc(N(C)C)nn5)CC4)cn3)nc2n(C2CCCC2)c1=O [CPD-373, 2-((5-(2-(4-(6-((6-Acetyl-8-cyclopentyl-5-methyl-7-oxo-7,8-dihydropyrido[2,3-d]pyrimidin-2-yl)amino)pyridin-3-yl)piperazin-1-yl)acetamido)pentyl)amino)-N-(6-(dimethylamino)pyridazin-3-yl)-4-methylbenzamide] | A (protein percentage degradation >=80%) |
| 50 to 80% | CC(=O)c1c(C)c2cnc(Nc3ccc(N4CCN(CC(=O)NCCCCCNc5cc(Cl)ccc5C(=O)Nc5ccc(N(C)C)nn5)CC4)cn3)nc2n(C2CCCC2)c1=O [CPD-374, 2-((5-(2-(4-(6-((6-Acetyl-8-cyclopentyl-5-methyl-7-oxo-7,8-dihydropyrido[2,3-d]pyrimidin-2-yl)amino)pyridin-3-yl)piperazin-1-yl)acetamido)pentyl)amino)-4-chloro-N-(6-(dimethylamino)pyridazin-3-yl)benzamide] | A (protein percentage degradation >=80%) |
| 50 to 80% | CC(=O)c1c(C)c2cnc(Nc3ccc(N4CCN(CC(=O)NCCCCNc5cc(C)ccc5C(=O)Nc5ccc(N(C)C)nn5)CC4)cn3)nc2n(C2CCCC2)c1=O [CPD-375, 2-((4-(2-(4-(6-((6-Acetyl-8-cyclopentyl-5-methyl-7-oxo-7,8-dihydropyrido[2,3-d]pyrimidin-2-yl)amino)pyridin-3-yl)piperazin-1-yl)acetamido)butyl)amino)-N-(6-(dimethylamino)pyridazin-3-yl)-4-methylbenzamide] | A (protein percentage degradation >=80%) |
| 50 to 80% | CC(=O)c1c(C)c2cnc(Nc3ccc(N4CCN(CC(=O)NCCCCCNc5cc(C#N)ccc5C(=O)Nc5ccc(N(C)C)nn5)CC4)cn3)nc2n(C2CCCC2)c1=O [CPD-376, 2-((5-(2-(4-(6-((6-Acetyl-8-cyclopentyl-5-methyl-7-oxo-7,8-dihydropyrido[2,3-d]pyrimidin-2-yl)amino)pyridin-3-yl)piperazin-1-yl)acetamido)pentyl)amino)-4-cyano-N-(6-(dimethylamino)pyridazin-3-yl)benzamide] | A (protein percentage degradation >=80%) |
